Values after ≈ are worked out from the molar mass of the structure shown.
Tests used:
Test in all cases: In vitro antifungal activity, microbroth dilution MIC
Assay type in all cases: cell-based
Candida albicans C1-2 = conditions: 4 to 48 hours; for Minimal inhibitory concentration (MIC): C. albicans C1-2, RPMI-1640, 35° C.
Description: (§1) In vitro antifungal activities of the inventive antifungal compounds were evaluated using the test strains shown in Table VIII by the following microbroth dilution method which is a modified version of the procedure recommended by National Committee for Clinical Laboratory Standards(see National Committee for Clinical Laboratory Standards, 1992, Reference methods for broth dilution antifungal susceptibility testing of yeasts, Proposed standard M27-P, National Committee for clinical laboratory standards, Villanova, Pa; and National Committee for Clinical Laboratory Standards, 1995, Reference methods for broth dilution antifungal susceptibility testing of yeasts. Tentative standard M27-T, National Committee for clinical laboratory standards, Villanova, Pa).
(§2) Sabourad Dextrose Agar(Difco) was used as a culture medium, and RPMI-1640 broth(Sigma. Co. w/L-glutamine, wo/NaHCO3)(0.165 M MOPS, pH 7.0), as a dilution medium.
(§3) Each of the test strains were subcultured in Sabourad Dextrose Agar medium twice and a stain sample was taken from prominent colonies and suspended in sterile physiological saline solution in a cap tube. The turbidity of the suspension was adjusted to that of the Mcfarland 0.5 standard sample(approximately 10^6 CFU/ml). Then the suspension was diluted 500-fold with sterile RPMI-1640 liquid medium to 2×10^3 CFU/ml.
(§4) Each of the test compounds(the compounds obtained in Examples 1 to 150 and comparative compounds, i.e., fluconazole(FCZ) and itraconazole (ICZ)), was dissolved in DMSO to give a stock solution having a concentration of 4000 μg/ml and the stock solution was successively diluted to obtain test solutions having test compound concentrations of 200, 100, 50, 25, 12.5, 6.25, 3.13, 1.56, 0.78, 0.39, 0.20 and 0.10 μg/ml, respectively.
(§5) 0.1 ml portion of the test solutions were added to the wells of a sterile 96 well plate. Then, 0.1 ml portion of each of the test strain solutions were added successively to the wells and the plate was incubated at 35° C. for 4 to 48 hours.
(§6) Minimal inhibitory concentration(MIC) of each compound was defined as the concentration of the test compound where no growth of the strain could be observed.

[1] = system: Cryptococcus neoformans IFM. 40092; conditions: for Minimal inhibitory concentration (MIC): Cry. neoformans IFM. 40092, RPMI-1640, 35° C., 4 to 48 hours
Description: as §1, §2, §3, §4, §5, §6

[2] = system: Trichophyton mentagrophytes A. 9129; conditions: for Minimal inhibitory concentration (MIC): T. mentagrophytes A. 9129, RPMI-1640, 35° C., 4 to 48 hours
Description: as §1, §2, §3, §4, §5, §6

[3] = system: Candida pseudotropicalis K. 11658; conditions: 4 to 48 hours; for Minimal inhibitory concentration (MIC): C. pseudotropicalis K. 11658, RPMI-1640, 35° C.
Description: as §1, §2, §3, §4, §5, §6

[4] = system: Aspergillus furnigatus B. 19119; conditions: for Minimal inhibitory concentration (MIC): A furnigatus B. 19119, RPMI-1640, 35° C., 4 to 48 hours
Description: as §1, §2, §3, §4, §5, §6

[5] = system: Cryptococcus neoformans B. 42419; conditions: 4 to 48 hours; for Minimal inhibitory concentration (MIC): Cry. neoformans B. 42419, RPMI-1640, 35° C.
Description: as §1, §2, §3, §4, §5, §6

[6] = system: Candida parapsitosis A. 7330; conditions: 4 to 48 hours; for Minimal inhibitory concentration (MIC): C. parapsitosis A. 7330, RPMI-1640, 35° C.
Description: as §1, §2, §3, §4, §5, §6

[7] = system: Candida tropicalis A. 13803; conditions: 4 to 48 hours; for Minimal inhibitory concentration (MIC): C. tropicalis A. 13803, RPMI-1640, 35° C.
Description: as §1, §2, §3, §4, §5, §6

Candida krusei K. 11655 = conditions: 4 to 48 hours; for Minimal inhibitory concentration (MIC): C. krusei K. 11655, RPMI-1640, 35° C.
Description: as §1, §2, §3, §4, §5, §6

[8] = system: Candida albicans A. 10231; conditions: 4 to 48 hours; for Minimal inhibitory concentration (MIC): C. albicans A. 10231, RPMI-1640, 35° C.
Description: as §1, §2, §3, §4, §5, §6

[9] = system: Aspergillus niger A. 16404; conditions: for Minimal inhibitory concentration (MIC): A. niger A. 16404, RPMI-1640, 35° C., 4 to 48 hours
Description: as §1, §2, §3, §4, §5, §6

[10] = system: Candida albicans IFO. 1385; conditions: 4 to 48 hours; for Minimal inhibitory concentration (MIC): C. albicans IFO. 1385, RPMI-1640, 35° C.
Description: as §1, §2, §3, §4, §5, §6

[11] = system: Trichophyton mentagrophytes B. 32663; conditions: for Minimal inhibitory concentration (MIC): T. mentagrophytes B. 32663, RPMI-1640, 35° C., 4 to 48 hours
Description: as §1, §2, §3, §4, §5, §6

[12] = system: Cryptococcus neoformans A. 34144; conditions: for Minimal inhibitory concentration (MIC): Cry. neoformans A. 34144, RPMI-1640, 35° C., 4 to 48 hours
Description: as §1, §2, §3, §4, §5, §6

[13] = system: Torulopsis glabrata B. 16205; conditions: 4 to 48 hours; for Minimal inhibitory concentration (MIC): T. glabrata B. 16205, RPMI-1640, 35° C.
Description: as §1, §2, §3, §4, §5, §6

[14] = RPMI-1640, 35° C., no growth observed

Cc1cccc(C(=C(F)OCC2COC(Cn3ccnc3)(c3ccc(Cl)cc3Cl)O2)C(F)(F)F)c1 (stereo not drawn) [Ex. 20]
Minimal inhibitory concentration (MIC) (Candida albicans C1-2): 6.25 µg/mL (≈ 11.8 µM) | Minimal inhibitory concentration (MIC) [1]: 0.39 µg/mL (≈ 0.734 µM) | Minimal inhibitory concentration (MIC) [2]: 12.5 µg/mL (≈ 23.5 µM) | Minimal inhibitory concentration (MIC) [3]: 100 µg/mL (≈ 188 µM) | Minimal inhibitory concentration (MIC) [4]: 50.0 µg/mL (≈ 94.1 µM) | Minimal inhibitory concentration (MIC) [5]: 1.56 µg/mL (≈ 2.94 µM) | Minimal inhibitory concentration (MIC) [6]: >100 µg/mL | Minimal inhibitory concentration (MIC) [7]: 25.0 µg/mL (≈ 47.1 µM) | Minimal inhibitory concentration (MIC) (Candida krusei K. 11655): 100 µg/mL (≈ 188 µM) | Minimal inhibitory concentration (MIC) [8]: 6.25 µg/mL (≈ 11.8 µM) | Minimal inhibitory concentration (MIC) [9]: 100 µg/mL (≈ 188 µM) | Minimal inhibitory concentration (MIC) [10]: 0.78 µg/mL (≈ 1.47 µM) | Minimal inhibitory concentration (MIC) [11]: 6.25 µg/mL (≈ 11.8 µM) | Minimal inhibitory concentration (MIC) [12]: 1.56 µg/mL (≈ 2.94 µM) | Minimal inhibitory concentration (MIC) [13]: 12.5 µg/mL (≈ 23.5 µM)

FC(OCC1COC(Cn2ccnc2)(c2ccc(Cl)cc2Cl)O1)=C(c1cccc(F)c1)C(F)(F)F (mixture of isomers) [Ex. 32]
Minimal inhibitory concentration (MIC) (Candida albicans C1-2): 6.25 µg/mL | Minimal inhibitory concentration (MIC) [1]: 0.39 µg/mL | Minimal inhibitory concentration (MIC) [2]: 12.5 µg/mL | Minimal inhibitory concentration (MIC) [3]: 100 µg/mL | Minimal inhibitory concentration (MIC) [4]: 50.0 µg/mL | Minimal inhibitory concentration (MIC) [5]: 1.56 µg/mL | Minimal inhibitory concentration (MIC) [6]: >100 µg/mL | Minimal inhibitory concentration (MIC) [7]: 25.0 µg/mL | Minimal inhibitory concentration (MIC) (Candida krusei K. 11655): >100 µg/mL | Minimal inhibitory concentration (MIC) [8]: 6.25 µg/mL | Minimal inhibitory concentration (MIC) [9]: 100 µg/mL | Minimal inhibitory concentration (MIC) [10]: 0.78 µg/mL | Minimal inhibitory concentration (MIC) [11]: 6.25 µg/mL | Minimal inhibitory concentration (MIC) [12]: 0.78 µg/mL | Minimal inhibitory concentration (MIC) [13]: 12.5 µg/mL

FC(=C(c1ccc(F)cc1)C(F)(F)F)N1CCN(c2ccc(OCC3COC(Cn4ccnc4)(c4ccc(F)cc4F)O3)cc2)CC1 (mixture of isomers) [Ex. 148]
Minimal inhibitory concentration(MIC), C. albicans C1-2 (Candida albicans C1-2; [14]): >100 µg/mL | Minimal inhibitory concentration(MIC), Cry. neoformans IFM. 40092 [1, 14]: ≦0.10 μg/ml | Minimal inhibitory concentration(MIC), T. mentagrophytes A. 9129 [2, 14]: 3.13 µg/mL | Minimal inhibitory concentration(MIC), C. pseudotropicalis K. 11658 [3, 14]: 0.78 µg/mL | Minimal inhibitory concentration(MIC), A furnigatus B. 19119 [4, 14]: 6.25 µg/mL | Minimal inhibitory concentration(MIC), Cry. neoformans B. 42419 [5, 14]: 0.78 µg/mL | Minimal inhibitory concentration(MIC), C. parapsitosis A. 7330 [6, 14]: 0.78 µg/mL | Minimal inhibitory concentration(MIC), C. tropicalis A. 13803 [7, 14]: >100 µg/mL | Minimal inhibitory concentration(MIC), C. krusei K. 11655 (Candida krusei K. 11655; [14]): 0.39 µg/mL | Minimal inhibitory concentration(MIC), C. albicans A. 10231 [8, 14]: >100 µg/mL | Minimal inhibitory concentration(MIC), A. niger A. 16404 [9, 14]: 100 µg/mL | Minimal inhibitory concentration(MIC), C. albicans IFO. 1385 [10, 14]: 0.39 µg/mL | Minimal inhibitory concentration(MIC), T. mentagrophytes B. 32663 [11, 14]: ≦0.10 μg/ml | Minimal inhibitory concentration(MIC), Cry. neoformans A. 34144 [12, 14]: 0.78 µg/mL | Minimal inhibitory concentration(MIC), T. glabrata B. 16205 [13, 14]: 50.0 µg/mL

— patent US6376497B1, “Antifungal azole derivatives having a fluorinated vinyl group and process for preparing same” (Korea Research Institute of Chemical Technology, priority 1999, dated 2002)
